“And” between values parts separate entries of the source, which are not always exact repeats. Equal entries are not always repeated. Toxic doses and inconclusive results are not listed. Rule as the data show it: active = T/C of 150% or more; inactive = T/C below 125%.
Tested on: L1210 leukemia ip in BDF1 mice, survival T/C
Assay: NCI In Vivo Anticancer Drug Screen. Data for tumor model L1210 Leukemia (intraperitoneal) in B6D2F1 (BDF1) mice
Details: endpoint: mean survival time, higher = longer survival
How it was run: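 Tumor cells were implanted, animals were treated, and survival was followed. The result divides the treated measurement by the vehicle-control measurement.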

[1] = dose: 100.0 mg/kg/injection, schedule: Q01DX001 (ip), vehicle: carboxymethylcellulose (CMC)
[2] = dose: 200.0 mg/kg/injection, schedule: Q01DX001 (ip), vehicle: carboxymethylcellulose (CMC)
[3] = dose: 400.0 mg/kg/injection, schedule: Q01DX001 (ip), vehicle: carboxymethylcellulose (CMC)
[4] = dose: 100.0 mg/kg/injection, schedule: Q01DX009 (ip), vehicle: saline with Tween-80
[5] = dose: 100.0 mg/kg/injection, schedule: Q04DX003 (ip), vehicle: saline with Tween-80
[6] = dose: 200.0 mg/kg/injection, schedule: Q04DX003 (ip), vehicle: saline with Tween-80
[7] = dose: 400.0 mg/kg/injection, schedule: Q04DX003 (ip), vehicle: saline with Tween-80
[8] = dose: 50.0 mg/kg/injection, schedule: Q01DX001 (ip), vehicle: carboxymethylcellulose (CMC)

Measured: T/C

Cc1ccc(S(=O)(=O)N(Cc2ccccc2[N+](=O)[O-])c2ccccc2)cc1
inactive: [1] 103 % of control | [2] 100 % of control | [3] 103 % of control

O=C(Nc1cccc(C(F)(F)F)c1)Nc1ccc2sc(=S)[nH]c2c1
inactive: dose: 6.25 mg/kg/injection, schedule: Q01DX009 (ip), vehicle: saline with Tween-80 95 % of control | dose: 12.5 mg/kg/injection, schedule: Q01DX009 (ip), vehicle: saline with Tween-80 93 % of control | dose: 25.0 mg/kg/injection, schedule: Q01DX009 (ip), vehicle: saline with Tween-80 93 % of control | dose: 50.0 mg/kg/injection, schedule: Q01DX009 (ip), vehicle: saline with Tween-80 86 % of control | [4] 86 % of control | dose: 400.0 mg/kg/injection, schedule: Q01DX009 (ip), vehicle: saline with Tween-80 95 % of control

CSc1ncnc2c1nnn2C1CC(CO)C(O)C1O (stereo unspecified)
inactive: dose: 100.0 mg/kg/injection, schedule: Q01DX001 (ip), vehicle: Klucel (hydroxypropylcellulose) (HPC) 95 % of control | dose: 200.0 mg/kg/injection, schedule: Q01DX001 (ip), vehicle: Klucel (hydroxypropylcellulose) (HPC) 101 % of control | dose: 400.0 mg/kg/injection, schedule: Q01DX001 (ip), vehicle: Klucel (hydroxypropylcellulose) (HPC) 102 % of control

CCN(CC)CCOc1ccc(C)cc1
inactive: dose: 50.0 mg/kg/injection, schedule: Q01DX009 (ip), vehicle: saline 97 % of control | dose: 100.0 mg/kg/injection, schedule: Q01DX009 (ip), vehicle: saline 89 % of control

COC(=O)Cc1ccc([N+](=O)[O-])cc1
inactive: [1] 94 % of control | [2] 91 % of control | [3] 88 % of control

CC(C)N(c1ccc(C(=O)O)cc1)C(C)C
inactive: dose: 100.0 mg/kg/injection, schedule: Q01DX009 (ip), vehicle: carboxymethylcellulose (CMC) 102 % of control and 109 % of control | dose: 100.0 mg/kg/injection, schedule: Q04DX002 (ip), vehicle: carboxymethylcellulose (CMC) 96 % of control and 98 % of control | dose: 100.0 mg/kg/injection, schedule: Q04DX003 (ip), vehicle: carboxymethylcellulose (CMC) 101 % of control | dose: 200.0 mg/kg/injection, schedule: Q01DX009 (ip), vehicle: carboxymethylcellulose (CMC) 102 % of control and 103 % of control | dose: 200.0 mg/kg/injection, schedule: Q04DX002 (ip), vehicle: carboxymethylcellulose (CMC) 95 % of control and 104 % of control | dose: 200.0 mg/kg/injection, schedule: Q04DX003 (ip), vehicle: carboxymethylcellulose (CMC) 98 % of control | dose: 400.0 mg/kg/injection, schedule: Q01DX009 (ip), vehicle: carboxymethylcellulose (CMC) 95 % of control and 97 % of control | dose: 400.0 mg/kg/injection, schedule: Q04DX002 (ip), vehicle: carboxymethylcellulose (CMC) 93 % of control and 86 % of control | dose: 400.0 mg/kg/injection, schedule: Q04DX003 (ip), vehicle: carboxymethylcellulose (CMC) 97 % of control

COCCCNP(=O)(OC(C)C)OC(C)C
inactive: dose: 100.0 mg/kg/injection, schedule: Q01DX001 (ip), vehicle: acetone 109 % of control | dose: 100.0 mg/kg/injection, schedule: Q04DX003 (ip), vehicle: acetone 97 % of control | dose: 200.0 mg/kg/injection, schedule: Q01DX001 (ip), vehicle: acetone 98 % of control | dose: 200.0 mg/kg/injection, schedule: Q04DX003 (ip), vehicle: acetone 95 % of control | dose: 400.0 mg/kg/injection, schedule: Q01DX001 (ip), vehicle: acetone 110 % of control | dose: 400.0 mg/kg/injection, schedule: Q04DX003 (ip), vehicle: acetone 95 % of control

Cc1ccc(S(=O)(=O)N/N=C(/c2ccccc2)c2cccs2)cc1
inactive: [4] 102 % of control | [5] 90 % of control | dose: 200.0 mg/kg/injection, schedule: Q01DX009 (ip), vehicle: saline with Tween-80 91 % of control | [6] 96 % of control | [7] 96 % of control

O=Cc1cccn1-c1ccc2ncccc2c1[N+](=O)[O-]
inactive: dose: 50.0 mg/kg/injection, schedule: Q04DX002 (ip), vehicle: Klucel (hydroxypropylcellulose) (HPC) 90 % of control | dose: 100.0 mg/kg/injection, schedule: Q04DX002 (ip), vehicle: Klucel (hydroxypropylcellulose) (HPC) 111 % of control | dose: 200.0 mg/kg/injection, schedule: Q04DX002 (ip), vehicle: Klucel (hydroxypropylcellulose) (HPC) 93 % of control

CS(=O)(=O)NC(=O)C[P+](c1ccccc1)(c1ccccc1)c1ccccc1
inactive: dose: 100.0 mg/kg/injection, schedule: Q01DX001 (ip), vehicle: saline 96 % of control | dose: 200.0 mg/kg/injection, schedule: Q01DX001 (ip), vehicle: saline 89 % of control | dose: 400.0 mg/kg/injection, schedule: Q01DX001 (ip), vehicle: saline 98 % of control

CCCCCCCCC1CCCC2C(C)CCC(C)C12 (stereo unspecified)
inactive: dose: 75.0 mg/kg/injection, schedule: Q01DX001 (ip), vehicle: saline 96 % of control | dose: 150.0 mg/kg/injection, schedule: Q01DX001 (ip), vehicle: saline 95 % of control | dose: 300.0 mg/kg/injection, schedule: Q01DX001 (ip), vehicle: saline 104 % of control

O=S1OCC=CCO1
inactive: [8] 108 % of control | [1] 114 % of control | [2] 105 % of control

[Br][La]([Br])[Br]
inactive: dose: 100.0 mg/kg/injection, schedule: Q04DX003 (ip), vehicle: saline 89 % of control | dose: 200.0 mg/kg/injection, schedule: Q04DX003 (ip), vehicle: saline 91 % of control | dose: 400.0 mg/kg/injection, schedule: Q04DX003 (ip), vehicle: saline 91 % of control

C/C=C/C(=O)OCCC[N+](C)(C)C
inactive: dose: 0.78 mg/kg/injection, schedule: Q01DX009 (ip), vehicle: saline 95 % of control | dose: 1.56 mg/kg/injection, schedule: Q01DX009 (ip), vehicle: saline 97 % of control | dose: 3.12 mg/kg/injection, schedule: Q01DX009 (ip), vehicle: saline 100 % of control | dose: 6.25 mg/kg/injection, schedule: Q04DX003 (ip), vehicle: saline 111 % of control | dose: 12.5 mg/kg/injection, schedule: Q04DX003 (ip), vehicle: saline 88 % of control | dose: 25.0 mg/kg/injection, schedule: Q04DX003 (ip), vehicle: saline 103 % of control

CC(=O)C(=O)C=C(C(F)(F)F)C(F)(F)F
inactive: [5] 113 % of control | [6] 106 % of control | [7] 101 % of control

Ic1ccc(N=Cc2cccs2)cc1
inactive: [8] 100 % of control | [1] 94 % of control | [2] 92 % of control | [3] 94 % of control

ClC1=NC(c2ccc(Cl)cc2)N2C1C2c1ccccc1 (stereo unspecified)
inactive: [5] 92 % of control | [6] 92 % of control | [7] 94 % of control

CC1(C)COC(=S)N1
inactive: dose: 3.13 mg/kg/injection, schedule: Q01DX009 (ip), vehicle: Klucel (hydroxypropylcellulose) (HPC) 100 % of control | dose: 5.0 mg/kg/injection, schedule: Q01DX009 (ip), vehicle: saline 100 % of control | dose: 5.0 mg/kg/injection, schedule: Q04DX003 (ip), vehicle: saline 98 % of control | dose: 6.25 mg/kg/injection, schedule: Q01DX009 (ip), vehicle: Klucel (hydroxypropylcellulose) (HPC) 103 % of control | dose: 10.0 mg/kg/injection, schedule: Q01DX009 (ip), vehicle: Klucel (hydroxypropylcellulose) (HPC) 97 % of control | dose: 10.0 mg/kg/injection, schedule: Q01DX009 (ip), vehicle: saline 100 % of control | dose: 10.0 mg/kg/injection, schedule: Q04DX003 (ip), vehicle: saline 102 % of control | dose: 12.5 mg/kg/injection, schedule: Q01DX009 (ip), vehicle: Klucel (hydroxypropylcellulose) (HPC) 97 % of control and 87 % of control | dose: 20.0 mg/kg/injection, schedule: Q04DX003 (ip), vehicle: Klucel (hydroxypropylcellulose) (HPC) 100 % of control | dose: 20.0 mg/kg/injection, schedule: Q04DX003 (ip), vehicle: saline 101 % of control

Nc1ncnc(Nc2ccccc2Oc2ccccc2)n1
inactive: [1] 97 % of control | [2] 92 % of control | [3] 86 % of control

CNC(=O)NS(=O)(=O)c1ccc(Cl)cc1
inactive: dose: 100.0 mg/kg/injection, schedule: Q04DX002 (ip), vehicle: saline with Tween-80 97 % of control and 102 % of control | [5] 103 % of control and 105 % of control | dose: 200.0 mg/kg/injection, schedule: Q04DX002 (ip), vehicle: saline with Tween-80 98 % of control and 91 % of control | [6] 94 % of control and 101 % of control | dose: 400.0 mg/kg/injection, schedule: Q04DX002 (ip), vehicle: saline with Tween-80 97 % of control and 98 % of control | [7] 115 % of control and 90 % of control

C[N+](C)(CCc1ccccc1)CC(O)COc1ccccc1 (stereo unspecified)
inactive: dose: 4.5 mg/kg/injection, schedule: Q01DX009 (ip), vehicle: Klucel (hydroxypropylcellulose) (HPC) 89 % of control | dose: 9.0 mg/kg/injection, schedule: Q01DX009 (ip), vehicle: Klucel (hydroxypropylcellulose) (HPC) 92 % of control | dose: 18.0 mg/kg/injection, schedule: Q01DX009 (ip), vehicle: Klucel (hydroxypropylcellulose) (HPC) 94 % of control | dose: 18.75 mg/kg/injection, schedule: Q04DX003 (ip), vehicle: Klucel (hydroxypropylcellulose) (HPC) 98 % of control

From PubChem BioAssay AID248 (DTP/NCI, 2004)
